This assay has as its target Human immunodeficiency virus type 1 protease (Human immunodeficiency virus 1, UniProt Q72874). The experiment in a line: Inhibitory activity was determined against HIV type 1 protease.

`CC(C)C[C@H](NC(=O)[C@H](NCc1ccccc1)[C@H](O)[C@H](Cc1ccccc1)NC(=O)[C@@H](NC(=O)OCc1ccccc1)C(C)C)C(=O)NCc1ccccc1` gave a Ki of 11 nM. The value for `CC(C)(C)[C@H](NC(=O)OCc1ccccc1)C(=O)N[C@@H](Cc1ccccc1)[C@@H](O)[C@@H](NCc1ccccc1)C(=O)NC(CO)c1ccccc1` (stereo not given in full) was 107 nM; that for `COc1ccc(CN[C@@H](C(=O)N[C@H](C(=O)NCCn2ccnc2)C(C)C)[C@H](O)[C@H](Cc2ccccc2)NC(=O)[C@@H](NC(=O)OCc2ccccc2)C(C)C)cc1` was 28.8 nM; that for `CC(C)[C@H](NC(=O)OCc1ccccn1)C(=O)N[C@@H](Cc1ccccc1)[C@@H](O)[C@@H](NCc1ccccc1)C(=O)N[C@H](C(=O)NCc1ccccn1)C(C)C` was 26.9 nM. The value for `COc1ccc(CN[C@@H](C(=O)N[C@H](C(=O)NCc2ccccc2)C(C)C)[C@H](O)[C@H](Cc2ccccc2)NC(=O)[C@@H](NC(=O)N(C)Cc2nc3ccccc3[nH]2)C(C)C)cc1` was 10.2 nM; that for `CC(C)[C@H](NC(=O)OCc1ccccc1)C(=O)N[C@@H](Cc1ccccc1)[C@@H](O)[C@@H](NCCc1cc2ccccc2[nH]1)C(=O)N[C@H](C(=O)NCc1ccccc1)C(C)C` was 61.7 nM; that for `COC(=O)[C@@H](NC(=O)[C@H](NCc1ccccc1)[C@H](O)[C@H](Cc1ccccc1)NC(=O)[C@@H](NC(=O)OCc1ccccc1)C(C)C)C(C)C` was 1100 nM. In the case of `COc1ccc(CN[C@@H](C(=O)NCc2ccc(OC)cc2O)[C@H](O)[C@H](Cc2ccccc2)NC(=O)[C@@H](NC(=O)OCc2ccccc2)C(C)C)cc1`, the Ki was 3020 nM. For `CC(C)(C)[C@H](NC(=O)OCc1ccccc1)C(=O)N[C@@H](Cc1ccccc1)[C@@H](O)[C@@H](NCc1ccc(OCCO)cc1)C(=O)N[C@H]1c2ccccc2CC1O` (stereo not given in full), the affinity, expressed as Ki, was 15.8 nM. The value for `COc1ccc(C[C@H](NC(=O)OC(C)(C)C)[C@@H](O)[C@@H](NCc2ccc(Cl)cc2)C(=O)N[C@H](C(=O)NCc2nc3ccccc3[nH]2)C(C)C)cc1` was 8.91 nM. The value for `CC(C)[C@H](NC(=O)[C@H](NCc1ccccc1)[C@H](O)[C@H](Cc1ccccc1)NC(=O)[C@@H](NC(=O)CC1NC(=O)NC1=O)C(C)(C)C)C(=O)NCc1ccccc1` (stereo not given in full) was 11 nM. Molecule `CC(C)(C)OC(=O)N[C@@H](Cc1ccccc1)[C@@H](O)[C@@H](NCc1ccc(CNC(=O)CCc2nc3ccccc3[nH]2)cc1)C(=O)N[C@H]1c2ccccc2CC1O` (stereo not given in full) showed a Ki of 40.7 nM.

On to `COc1ccc(CN[C@@H](C(=O)N[C@H](C(=O)NCC2CCCCC2O)C(C)C)[C@H](O)[C@H](Cc2ccccc2)NC(=O)[C@@H](NC(=O)OCc2ccccc2)C(C)C)cc1` (stereo not given in full), for which the Ki was 15.8 nM.

As to `CCOc1ccc(CN[C@@H](C(=O)NCc2ccccc2)[C@H](O)[C@H](Cc2ccccc2)NC(=O)[C@@H](NC(=O)OCc2ccccc2)C(C)(C)C)cc1`, the affinity, expressed as Ki, was 37.2 nM. The value for `CC(C)(C)[C@H](NC(=O)OCc1ccccc1)C(=O)N[C@@H](Cc1ccccc1)[C@@H](O)[C@@H](NCc1ccc(OCCO)cc1)C(=O)NCc1ccccc1` was 33.9 nM; that for `COc1cccc(CN[C@@H](C(=O)N[C@H](C(=O)NCc2nc3ccccc3[nH]2)C(C)C)[C@H](O)[C@H](Cc2ccccc2)NC(=O)[C@@H](NC(=O)OCc2ccccc2)C(C)C)c1` was 9.77 nM.

The molecule `COc1ccc(CN[C@@H](C(=O)N[C@H](C(=O)NCc2nc3ccccc3[nH]2)C(C)C)[C@H](O)[C@H](Cc2ccccc2)NC(=O)[C@@H](NC(=O)OC(C)(C)C)C(C)C)cc1` showed a Ki of 20.9 nM.

`COc1ccc(CN[C@@H](C(=O)N[C@H](C(=O)NCc2ccc(OC)cc2O)C(C)C)[C@H](O)[C@H](Cc2ccccc2)NC(=O)[C@@H](NC(=O)OCc2ccccc2)C(C)C)cc1` gave a Ki of 14.1 nM.

`COc1ccc(CN[C@@H](C(=O)N[C@H](C(=O)NCc2nc3ccccc3[nH]2)C(C)C)[C@H](O)[C@H](Cc2ccccc2)NC(=O)[C@@H](NC(=O)OCc2nc3cc[nH]cc-3n2)C(C)(C)C)cc1` gave a Ki of 19.1 nM.

Consider `CC(C)[C@H](NC(=O)c1ccc2ccccc2n1)C(=O)N[C@@H](Cc1ccccc1)[C@@H](O)[C@@H](NCc1ccccc1)C(=O)N[C@H](C(=O)NCc1ccccn1)C(C)C`, for which affinity was put at a Ki of 42.7 nM.

For `CC(C)[C@H](NC(=O)OCc1ccccc1)C(=O)N[C@@H](Cc1ccccc1)[C@@H](O)[C@@H](NCc1ccc(Cl)cc1)C(=O)N[C@H](C(=O)NCc1ccccn1)C(C)C`, the affinity corresponds to a Ki of 6.46 nM.

Regarding `CC(C)[C@H](NC(=O)[C@H](NCc1ccccc1)[C@H](O)[C@H](Cc1ccccc1)NC(=O)[C@@H](NC(=O)OCc1ccccn1)C(C)(C)C)C(=O)NCc1ccccc1`, the affinity corresponds to a Ki of 1.24 nM. The value for `CC(C)[C@H](NC(=O)[C@H](SCc1ccccc1)[C@H](O)[C@H](Cc1ccccc1)NC(=O)OC(C)(C)C)C(=O)NCc1ccccc1` was 26.9 nM. The value for `COc1ccc(CN[C@@H](C(=O)NC2c3ccccc3C[C@H]2O)[C@H](O)[C@H](Cc2ccccc2)NC(=O)[C@@H](NC(=O)C(O)Cc2ccccc2)C(C)(C)C)cc1` (stereo not given in full) was 14.1 nM; that for `COc1ccc(CN[C@@H](C(=O)NCCNCc2nc3ccccc3[nH]2)[C@H](O)[C@H](Cc2ccccc2)NC(=O)[C@@H](NC(=O)OCc2ccccc2)C(C)C)cc1` was 1290 nM.

Regarding `CC(C)[C@H](NC(=O)OCc1ccccc1)C(=O)N[C@@H](Cc1ccccc1)[C@@H](O)[C@@H](NCc1ccc(Br)cc1)C(=O)N[C@H](C(=O)NCc1nc2ccccc2[nH]1)C(C)C`, the Ki was 15.1 nM. The value for `CC(C)[C@H](NC(=O)[C@H](NCc1ccccc1)[C@H](O)[C@H](Cc1ccccc1)NC(=O)[C@@H](NC(=O)N(C)c1ccccc1)C(C)(C)C)C(=O)NCc1ccccc1` was 646 nM; that for `COc1ccc(CN[C@@H](C(=O)N[C@H](C(=O)NCCn2cnc3ccccc32)C(C)C)[C@H](O)[C@H](Cc2ccccc2)NC(=O)[C@@H](NC(=O)OCc2ccccc2)C(C)C)cc1` was 19.1 nM; that for `CCOc1ccc(CN[C@@H](C(=O)N[C@H]2c3ccccc3CC2O)[C@H](O)[C@H](Cc2ccccc2)NC(=O)[C@@H](NC(=O)OCc2ccccc2)C(C)(C)C)cc1` (stereo not given in full) was 10 nM.

Molecule `CCOC(=O)[C@H](NCc1ccc(Cl)cc1)[C@H](O)[C@H](Cc1ccc(OC)cc1)NC(=O)OC(C)(C)C` gave a Ki of 3720 nM. The value for `COc1ccc(CN[C@@H](C(=O)N[C@H](C(=O)NCc2nc3ccccc3[nH]2)C(C)C)[C@H](O)[C@H](Cc2ccccc2)NC(=O)[C@@H](NC(=O)OCc2ccccc2)C(C)C)cc1OC` was 12.6 nM; that for `COc1ccc(CN[C@@H](C(=O)N[C@H](C(=O)NCc2nc3ccccc3[nH]2)C(C)C)[C@H](O)[C@H](Cc2ccccc2)NC(=O)[C@@H](NC(=O)[C@@H](O)Cc2ccccc2)C(C)(C)C)cc1` was 6.03 nM. The value for `COc1ccc(CN[C@@H](C(=O)NCC(O)c2ccccc2)[C@H](O)[C@H](Cc2ccccc2)NC(=O)[C@@H](NC(=O)OCc2ccccc2)C(C)C)cc1` (stereo not given in full) was 2510 nM; that for `CC(C)(C)[C@H](NC(=O)OCc1ccccc1)C(=O)N[C@@H](Cc1ccccc1)[C@@H](O)[C@@H](NCc1ccccc1)C(=O)N[C@@H](CO)c1ccccc1` was 36.3 nM. The value for `COc1ccc(CN[C@@H](C(=O)N[C@H](C(=O)N(C)Cc2nc3ccccc3[nH]2)C(C)C)[C@H](O)[C@H](Cc2ccccc2)NC(=O)OC(C)(C)C)cc1` was 12 nM; that for `COc1ccc(CN[C@@H](C(=O)N[C@H](C(=O)NCc2nc3ccccc3[nH]2)C(C)C)[C@H](O)[C@H](Cc2ccccc2)NC(=O)[C@@H](N)C(C)(C)C)cc1` was 7.76 nM; that for `CC(C)(C)[C@H](NC(=O)OCc1ccccc1)C(=O)N[C@@H](Cc1ccccc1)[C@@H](O)[C@@H](NCc1ccc(OCCN2CCOCC2)cc1)C(=O)N[C@H]1c2ccccc2CC1O` (stereo not given in full) was 9.55 nM. `CC(C)[C@H](NC(=O)[C@H](NCc1ccc(Br)cc1)[C@H](O)[C@H](Cc1ccccc1)NC(=O)[C@@H](NC(=O)c1ccc2ccccc2n1)C(C)(C)C)C(=O)NCc1nc2ccccc2[nH]1` had a Ki of 5.62 nM.

As to `CC(C)[C@H](NC(=O)[C@H](NCc1ccccc1)[C@H](O)[C@H](Cc1ccccc1)NC(=O)[C@@H](NC(=O)OC(C)(C)C)C(C)(C)C)C(=O)NCc1ccccc1`, the affinity corresponds to a Ki of 417 nM. Molecule `COc1ccc(CN[C@@H](C(=O)N[C@H](C(=O)NCCN2CCOCC2)C(C)C)[C@H](O)[C@H](Cc2ccccc2)NC(=O)[C@@H](NC(=O)OCc2ccccc2)C(C)C)cc1` showed a Ki of 24 nM.

In the case of `CC(C)(C)[C@H](NC(=O)OCc1ccccc1)C(=O)N[C@@H](Cc1ccccc1)[C@@H](O)[C@@H](NCc1ccc(OCCN2CCOCC2)cc1)C(=O)NCc1ccccc1`, the Ki is 69.2 nM. As to `CC(C)(C)OC(=O)N[C@@H](Cc1ccccc1)[C@@H](O)[C@@H](NCc1ccc(OCCN2CCOCC2)cc1)C(=O)N[C@H]1c2ccccc2CC1O` (stereo not given in full), the Ki was 162 nM. As for `COc1ccc(CN[C@@H](C(=O)N[C@H](C(=O)NCc2nc3ccccc3[nH]2)C(C)C)[C@H](O)[C@H](Cc2ccccc2)NC(=O)[C@H](NC(=O)OCc2nc3cc[nH]cc-3n2)C(C)(C)C)cc1`, affinity was put at a Ki of 447 nM. The value for `CC(C)(C)[C@H](NC(=O)OCc1ccccc1)C(=O)N[C@@H](Cc1ccccc1)[C@@H](O)[C@@H](NCc1ccc(CNC(=O)OCc2ccccc2)cc1)C(=O)N[C@H]1c2ccccc2CC1O` (stereo not given in full) was 10 nM; that for `CC(C)(C)[C@H](NC(=O)OCc1ccccc1)C(=O)N[C@@H](Cc1ccccc1)[C@@H](O)[C@@H](NCc1ccc(CNC(=O)CCc2nc3ccccc3[nH]2)cc1)C(=O)N[C@H]1c2ccccc2CC1O` (stereo not given in full) was 4.07 nM; that for `COc1ccc(CN[C@@H](C(=O)N[C@H](C(=O)Nc2ccc3c(c2)OCCO3)C(C)C)[C@H](O)[C@H](Cc2ccccc2)NC(=O)[C@@H](NC(=O)OCc2ccccc2)C(C)C)cc1` was 15.1 nM. The molecule `CC(C)(C)OC(=O)N[C@@H](Cc1ccccc1)[C@@H](O)[C@@H](NCc1ccc(CNC(=O)OCc2ccccc2)cc1)C(=O)N[C@H]1c2ccccc2CC1O` (stereo not given in full) gave a Ki of 19.1 nM. The value for `CC(C)[C@H](NC(=O)[C@H](NCc1ccccc1)[C@H](O)[C@H](Cc1ccccc1)NC(=O)[C@H](O)C(C)C)C(=O)NCc1ccccc1` was 794 nM; that for `CC(C)(C)OC(=O)N[C@@H](Cc1ccccc1)[C@@H](O)[C@@H](NCc1ccc(OCCO)cc1)C(=O)NCc1ccccc1` was 1200 nM; that for `CC(C)(C)OC(=O)N[C@@H](Cc1ccccc1)[C@@H](O)[C@@H](NCc1ccccc1)C(=O)NCc1ccccc1` was 2510 nM.

For orientation: Ki means a measure of affinity in units of concentration, obtained from inhibition or displacement. Lower therefore signals a stronger hold on the target.

These data come from ChEMBL document CHEMBL1128211, “3D-quantitative structure-activity relationships of human immunodeficiency virus type-1 proteinase inhibitors: comparative molecular field analysis of 2-heterosubstituted statine derivatives-implications for the design of novel inhibitors” (J Med Chem, 1995).
